Converted amounts (≈) assume the structure as drawn.
What was measured:
[1] = system: Haemophilus influenzae (Isolate ID ATCC 49247); assay: Antibacterial activity, MIC, H. influenzae; assay type: cell-based; conditions: Gram negative strain, broth microdilution or agar dilution; for MIC: Haemophilus influenzae, ATCC49247
Method: (§1) Bacterial Assay: Determination of Antibacterial Activity
(§2) Compounds of the invention were tested for antimicrobial activity by susceptibility testing in liquid or on solid media. MICs for compounds against each strain were determined by the broth microdilution or agar dilution method according to the guidelines of the Clinical Laboratories and Standards Institute, formerly the National Committee for Clinical Laboratory Standards (Clinical Laboratories and Standards Institute. Methods for Dilution Antimicrobial Susceptibility Tests for Bacteria That Grow Aerobically; Approved Standard—Seventh Edition. Document M7-A7. CLSI, Wayne, Pa., 2006; Clinical Laboratories and Standards Institute. The gram positive bacterial strains tested include S. aureus (Staphylococcus aureus (Isolate ID ATCC 29213)), E. faecalis (Enterococcus faecalis (Isolate ID ATCC 29212)) and S. pyogenes (Streptococcus pyogenes (Isolate ID ATCC 51339)). The gram negative bacterial strains tested include H. influenzae (Haemophilus influenzae (Isolate ID ATCC 49247))

[2] = system: Staphylococcus aureus (Isolate ID ATCC 29213); assay: Antibacterial activity, MIC, S. aureus; assay type: cell-based; conditions: broth microdilution or agar dilution; for MIC: Staphylococcus aureus, ATCC29213, Gram positive strain; for Antibacterial Activity (MIC) S. aureus (ATCC 29213): Gram positive strain
Method: as §1, §2

[3] = system: Streptococcus pyogenes (Isolate ID ATCC 51339); assay: Antibacterial activity, MIC, S. pyogenes; assay type: cell-based; conditions: broth microdilution or agar dilution; for MIC: Streptococcus pyogenes, ATCC51339, Gram positive strain; for Antibacterial Activity (MIC) S. pyogenes (ATCC 51339): Gram positive strain
Method: as §1, §2

physchem = conditions: kinetic from dmso stock
Method: Turbimetric Assay: Determination of Solubility
The solubility of the compounds was measured using a turbidimetric method. A series of doubling dilutions of compounds were prepared in neat dimethyl sulfoxide (DMSO). 5 μl samples were diluted twenty-fold into 95 μl volumes of 100 mM citrate buffer (pH 4), phosphate buffered saline (PBS, pH 7.4) or carbonate-bicarbonate buffer (pH 9) in microtitre assay plates and allowed to reach equilibrium at room temperature for 24 hours. The absorbance within each well of the plate was read spectrophotometrically at a wavelength of 620 nm. A precipitate forms when the maximum aqueous solubility level is reached. The value quoted is the highest concentration where the compound was in solution i.e. where no measurable precipitate was present. […] ND=not determined

[4] = pH 7.4, aqueous buffer, Solubility (pH 7.4)
[5] = pH 7.4, aqueous buffer, Solubility Range
[6] = pH 9, aqueous buffer, Max Solubility
[7] = pH 9, aqueous buffer, Solubility Range (maximum solubility)

SMILES	MIC [1]	MIC [2]	MIC [3]	solubility at 24 h (physchem; [4])	solubility at 24 h (physchem; [5])	solubility at 24 h (physchem; [6])	solubility at 24 h (physchem; [7])	solubility at 24 h (physchem; pH 7.4, aqueous buffer, Max Solubility)	solubility at 24 h (physchem; pH 7.4, aqueous buffer, Solubility Range (maximum solubility))	Antibacterial Activity (MIC) H. influenzae (ATCC 49247) [1]	Antibacterial Activity (MIC) S. aureus (ATCC 29213) [2]	Antibacterial Activity (MIC) S. pyogenes (ATCC 51339) [3]
CCNC(=O)Nc1nc2cc(-c3cnc(N4CCC(C)(C(=O)O)CC4)nc3)nc(-c3ccccn3)c2s1 [Compound 162, 1-[5-[2-(ethylcarbamoylamino)-4-(2-pyridyl)thiazolo[5,4-c]pyridin-6-yl]pyrimidin-2-yl]-4-methyl-piperidine-4-carboxylic acid]	1 to 16 mg/L (≈ 1.93 to 30.9 µM)	≤ 0.25 mg/L	≤ 0.25 mg/L	0.2 mg/mL (≈ 386 µM)	0.0125 to 0.4 mg/mL (≈ 24.1 to 771 µM)	0.4 mg/mL (≈ 771 µM)	0.4 to 0.8 mg/mL (≈ 771 to 1540 µM)					
CCNC(=O)Nc1nc2cc(-c3cnc(N4CCC(C)(C(=O)O)CC4)nc3)cc(-c3ccc(CN4CCOCC4)cn3)c2s1 [Compound 205]	1 to 16 mg/L (≈ 1.62 to 25.9 µM)	0.25 to 1 mg/L (≈ 0.405 to 1.62 µM)	0.25 to 1 mg/L (≈ 0.405 to 1.62 µM)	0.4 mg/mL (≈ 649 µM)	0.4 to 0.8 mg/mL (≈ 649 to 1300 µM)	≥ 0.8 mg/mL	> 0.8 mg/mL					
CCNC(=O)Nc1nc2cc(-c3cnc(N4CCC(CC)(C(=O)O)CC4)nc3)cc(/C=N/OC)c2s1 [Compound 189, 4-Ethyl-1-[5-[2-(ethylcarbamoylamino)-7-[(E)-methoximinomethl]-1,3-benzothiazol-5-yl]pyrimidin-2-yl]piperidine-4-carboxylic acid]										C (“C” activity >1.0 μg/mL-16 μg/mL)	A (“A” activity ≦0.25 μg/mL)	A (“A” activity ≦0.25 μg/mL)
CCNC(=O)Nc1nc2cc(-c3nc(N4CCC(C)(C(=O)O)CC4)ns3)cc(-c3ccccn3)c2s1 [Compound 233, 1-(5-{2-[(ethylcarbamoyl)amino]-7-(pyridin-2-yl)-1,3-benzothiazol-5-yl}-1,2,4-thiadiazol-3-yl)-4-methylpiperidine-4-carboxylic acid]										D (“D” activity >16 μg/mL)	B (“B” activity >0.25 μg/mL-1.0 μg/mL)	B (“B” activity >0.25 μg/mL-1.0 μg/mL)

Second part, led by results:

MIC [1]	MIC [2]	MIC [3]	solubility at 24 h (physchem; [4])	solubility at 24 h (physchem; [5])	solubility at 24 h (physchem; [6])	solubility at 24 h (physchem; [7])	solubility at 24 h (physchem; pH 7.4, aqueous buffer, Max Solubility)	solubility at 24 h (physchem; pH 7.4, aqueous buffer, Solubility Range (maximum solubility))	SMILES	Antibacterial Activity (MIC) H. influenzae (ATCC 49247) [1]	Antibacterial Activity (MIC) S. aureus (ATCC 29213) [2]	Antibacterial Activity (MIC) S. pyogenes (ATCC 51339) [3]
> 16 mg/L	1 to 16 mg/L (≈ 1.99 to 31.8 µM)	1 to 16 mg/L (≈ 1.99 to 31.8 µM)							CCNC(=O)Nc1cn2c(-n3cccn3)cc(-c3cnc(N4CCC(CC)(C(=O)O)CC4)nc3)cc2n1 [Compound 230, 4-ethyl-1-[5-[2-(ethylcarbamoylamino)-5-pyrazol-1-yl-imidazo[1,2-a]pyridin-7-yl]pyrimidin-2-yl]piperidine-4-carboxylic acid]			
1 to 16 mg/L (≈ 1.85 to 29.6 µM)	≤ 0.25 mg/L	≤ 0.25 mg/L	≥ 0.8 mg/mL	> 0.8 mg/mL			≥ 0.8 mg/mL	> 0.8 mg/mL	CCNC(=O)Nc1nc2cc(-c3cnc(N4CCC(CC)(C(=O)O)CC4)nc3)cc(/C(CC)=N/OC)c2s1 [Compound 224, 4-ethyl-1-[5-[2-(ethylcarbamoylamino)-7-[(E)-C-ethyl-N-methoxy-carbonimidoyl]-1,3-benzothiazol-5-yl]pyrimidin-2-yl]piperidine-4-carboxylic acid]			
1 to 16 mg/L (≈ 1.96 to 31.3 µM)	0.25 to 1 mg/L (≈ 0.49 to 1.96 µM)	0.25 to 1 mg/L (≈ 0.49 to 1.96 µM)	0.1 mg/mL (≈ 196 µM)	0.0125 to 0.4 mg/mL (≈ 24.5 to 783 µM)	0.4 mg/mL (≈ 783 µM)	0.4 to 0.8 mg/mL (≈ 783 to 1570 µM)			CCNC(=O)Nc1nc2cc(-c3cnc(N4CCC(CC)(C(=O)O)CC4)nc3)cc(C(=O)CC)c2s1 [Compound 207, 4-Ethyl-1-(5-(2-(3-ethylureido)-7-propionylbenzo[d]thiazol-5-yl)pyrimidin-2-yl)piperidine-4-carboxylic acid]			
	> 16 mg/L	1 to 16 mg/L (≈ 2.04 to 32.7 µM)							CCNC(=O)Nc1cn2c(-n3cccn3)cc(-c3cnc(N4CCC(C)(C(=O)O)CC4)nc3)cc2n1 [Compound 231, 1-[5-[2-(ethylcarbamoylamino)-5-pyrazol-1-yl-imidazo[1,2-a]pyridin-7-yl]pyrimidin-2-yl]-4-methyl-piperidine-4-carboxylic acid]			

Source: patent US9181234B2, “Antibacterial compounds” (priority 2010, dated 2015)
